Activity calls are given as the source filed them. No cut-off for these calls is given here.
What was measured:
[1] = Induction of beta cells proliferation in 5 days post fertilize Tg(-1.2ins:H2BmCherry) zebra fish larvae assessed as beta cell number at 10 uM after 24 hrs by confocal microscopic method (reference value: 35 +/- 1); assay type: functional, Danio rerio, Pancreatic beta cell
INS1(832/13) [2] = test: Induction of cell proliferation in rat INS-1 832/13 cells after 24 hrs by CCK8 assay; assay type: functional, cell-based
Pancreatic beta cell [3] = test: Induction of beta cells proliferation in 6 days post fertilize Tg(-1.2ins:H2BmCherry)/TgBAC(neurod1:eGFP) zebra fish larvae at 10 uM after 24 hrs by confocal microscopic method; assay type: functional, tissue-based; conditions: Danio rerio
Pancreatic beta cell [4] = test: Induction of beta cells proliferation in 6 days post fertilize Tg(-1.2ins:H2BmCherry)/Tg(gcga:eGFP) zebra fish larvae at 10 uM after 24 hrs by confocal microscopic method; assay type: functional; conditions: Danio rerio
[5] = Induction of beta cells proliferation in 6 days post fertilize Tg(-1.2ins:H2BmCherry)Tg(ins:mAG-zGeminin(1/100)) zebra fish larvae assessed as number of replicated beta cells at 10 uM after 24 hrs by confocal microscopic method (reference value: 1.7 +/- 0.5); assay type: functional, Danio rerio, Pancreatic beta cell
Pancreatic beta cell [6] = test: Induction of beta cells proliferation in 6 days post fertilize Tg(-1.2ins:H2BmCherry)Tg(ins:mAG-zGeminin(1/100)) zebra fish larvae assessed as increase in total beta cells at 5 to 10 uM after 24 hrs by confocal microscopic method; assay type: functional; conditions: Danio rerio, dose microM 5-10, time 24.0 hrs
Pancreatic beta cell [7] = test: Induction of beta cells proliferation in 6 days post fertilize Tg(-1.2ins:H2BmCherry)Tg(ins:mAG-zGeminin(1/100)) zebra fish larvae assessed as increase in beta cell proliferation at 5 to 10 uM after 24 hrs by confocal microscopic method; assay type: functional; conditions: Danio rerio, dose microM 5-10, time 24.0 hrs
Pancreatic beta cell [8] = test: Induction of beta cells proliferation in 6 days post fertilize Tg(-1.2ins:H2BmCherry)Tg(ins:mAG-zGeminin(1/100)) zebra fish larvae assessed as increase in total beta cells at 25 to 50 uM after 24 hrs by confocal microscopic method; assay type: functional, cell-based; conditions: Danio rerio, dose microM 25-50, time 24.0 hrs
Pancreatic beta cell [9] = test: Induction of beta cells proliferation in 6 days post fertilize Tg(-1.2ins:H2BmCherry)Tg(ins:mAG-zGeminin(1/100)) zebra fish larvae assessed as increase in beta cell proliferation at 25 to 50 uM after 24 hrs by confocal microscopic method; assay type: functional; conditions: Danio rerio, dose microM 25-50, time 24.0 hrs
[10] = Toxicity in 6 days post fertilize Tg(-1.2ins:H2BmCherry)Tg(ins:mAG-zGeminin(1/100)) zebra fish beta cells at 50 uM after 24 hrs by confocal microscopic method; assay type: tissue-based, Danio rerio; conditions: zebrafish, pancreatic beta cell
INS1(832/13) [11] = test: Induction of cell cycle progression at G1/S transition in rat INS-1 832/13 cells assessed as increase in Cyclin E mRNA expression at 10 uM after 24 hs by qRT-PCR analysis; assay type: functional, cell-based; conditions: time 24.0 hrs
INS1(832/13) [12] = test: Induction of cell cycle progression at G1/S transition in rat INS-1 832/13 cells assessed as increase in Cdk 2 mRNA expression at 10 uM after 24 hs by qRT-PCR analysis; assay type: functional, cell-based; conditions: time 24.0 hrs
INS1(832/13) [13] = test: Induction of cell cycle progression at G1/S transition in rat INS-1 832/13 cells assessed as increase in Cdk 4 mRNA expression at 10 uM after 24 hs by qRT-PCR analysis; assay type: functional, cell-based; conditions: time 24.0 hrs
INS1(832/13) [14] = test: Induction of cell cycle progression at G1/S transition in rat INS-1 832/13 cells assessed as decrease in p21 mRNA expression at 10 uM after 24 hs by qRT-PCR analysis; assay type: functional, cell-based; conditions: time 24.0 hrs
INS1(832/13) [15] = test: Induction of cell cycle progression at G1/S transition in rat INS-1 832/13 cells assessed as decrease in p27 mRNA expression at 10 uM after 24 hs by qRT-PCR analysis; assay type: functional, cell-based; conditions: time 24.0 hrs
Pancreatic beta cell [16] = test: Induction of beta cells proliferation in 6 days post fertilize Tg(-1.2ins:H2BmCherry)Tg(ins:mAG-zGeminin(1/100)) zebra fish larvae assessed as increase in total beta cells after 24 hrs by confocal microscopic method; assay type: functional; conditions: Danio rerio, dose microM 5-25, time 24.0 hrs
Pancreatic beta cell [17] = test: Induction of beta cells proliferation in 6 days post fertilize Tg(-1.2ins:H2BmCherry)Tg(ins:mAG-zGeminin(1/100)) zebra fish larvae assessed as increase in beta cell proliferation after 24 hrs by confocal microscopic method; assay type: functional; conditions: Danio rerio, dose microM 5-25, time 24.0 hrs
[18] = Induction of beta cells proliferation in 6 days post fertilize Tg(-1.2ins:H2BmCherry)Tg(ins:mAG-zGeminin(1/100)) zebra fish larvae assessed as increase in beta cell proliferation at 25 uM after 24 hrs by confocal microscopic method relative to control; assay type: functional, Danio rerio, Pancreatic beta cell
Pancreatic beta cell [19] = test: Induction of beta cells proliferation in 6 days post fertilize Tg(-1.2ins:H2BmCherry)Tg(ins:mAG-zGeminin(1/100)) zebra fish larvae assessed as increase in beta cells at 50 uM after 24 hrs by confocal microscopic method relative to control; assay type: functional; conditions: Danio rerio

**Q.** Which Activity [1] does the source give for `CC(C)=CCc1c(C)cc2oc3cccc(C4O[C@H](C)[C@@H](C)O4)c3c(=O)c2c1O` here?
**A.** 39

**Q.** For `C[C@]12C=CC(=O)C=C1CC[C@@H]1[C@@H]2[C@@H](O)C[C@@]2(C)[C@H]1CC[C@]2(O)C(=O)CO` [PREDNISOLONE], which Activity [1] is on record?
**A.** 40

**Q.** With `C=CC(C)(C)c1cc(CC=C(C)C)c(O)c2c(=O)c3c(CO)cc(C)cc3oc12` as the compound, how does the Activity (INS1(832/13) [2]) read?
**A.** Active

**Q.** And the Activity [1]?
**A.** 40

**Q.** And the Activity (Pancreatic beta cell [3])?
**A.** Active

**Q.** What about the Activity (Pancreatic beta cell [4]) of the same compound?
**A.** Active

**Q.** What about the Activity [5] of the same compound?
**A.** 4.3

**Q.** And the Activity (Pancreatic beta cell [6])?
**A.** Dose-dependent effect

**Q.** What about the Activity (Pancreatic beta cell [7]) of the same compound?
**A.** Dose-dependent effect

**Q.** What about the Activity (Pancreatic beta cell [8]) of the same compound?
**A.** inactive

**Q.** And the Activity (Pancreatic beta cell [9])?
**A.** inactive

**Q.** And the Activity [10]?
**A.** Toxic

**Q.** What about the Activity (INS1(832/13) [11]) of the same compound?
**A.** Active

**Q.** What about the Activity (INS1(832/13) [12]) of the same compound?
**A.** Active

**Q.** What about the Activity (INS1(832/13) [13]) of the same compound?
**A.** Active

**Q.** What about the Activity (INS1(832/13) [14]) of the same compound?
**A.** Active

**Q.** And the Activity (INS1(832/13) [15])?
**A.** Active

**Q.** What does the source list for `C=CC(C)(C)c1c(C)c(CC=C(C)C)c(O)c2c(=O)c3c(CO)cccc3oc12`?
**A.** Activity (INS1(832/13) [2]): Active; Activity [1]: 40; Activity (Pancreatic beta cell [3]): Active; Activity (Pancreatic beta cell [4]): Active; Activity [5]: 3.6; Activity (Pancreatic beta cell [16]): Dose-dependent effect; Activity (Pancreatic beta cell [17]): Dose-dependent effect; Activity [18]: 10%; Activity (Pancreatic beta cell [19]): inactive; Activity [10]: Toxic; Activity (INS1(832/13) [11]): Active; Activity (INS1(832/13) [12]): Active; Activity (INS1(832/13) [13]): Active; Activity (INS1(832/13) [14]): Active; Activity (INS1(832/13) [15]): Active
